Several values for one entry are separate records, joined by “and”; a condition that tells them apart may be missing. Identical values can stand only once. Values belong to the molecule of their own block, whether it stands above or below them.
Assays:
[1] = test system: ristocetin-induced platelet aggregation; test: Ristocetin-induced platelet aggregation (RIPA) ex vivo in blood of treated baboons; settings: baboons 4-10; further +1 mg/kg Plavix on top of 5 mg/kg Aspegic + 60 IU/kg Heparin + 1 mg/kg Plavix
Description: Platelet aggregations were performed on a Chronolog whole blood and optical Aggregometer (Model 560CA, Chronolog, USA). PRP was prepared (collected on 0.38 mol/L citrate), by centrifuging the whole blood at 1200 rpm for 5 minutes. The upper fraction containing the PRP was carefully removed. The lower fraction was further centrifuged at 3000 rpm for 10 minutes to prepare platelet poor plasma (PPP). Platelets were counted in PRP and diluted in PPP to a final concentration of 200.000 platelets per microliter. 3 mg/ml ristocetin (DAKO) was added and aggregation was measured.
The GPIb-IX-V dependent platelet aggregation through vWF is measured using ristocetin as a modulator. The % aggregation is measured at each time point and at each dose.

[2] = test system: cyclic flow reductions (CFRs) in injured, stenosed femoral artery; test: Folts model in baboons: Aspegic-Heparin-Plavix combination with ALX-0081 on top; assay type: in vivo, baboon (Papio ursinus); settings: combined with 5 mg/kg Aspirin and 60 IU/kg Heparin
Description: Extra Heparin was administered at different time points to sustain a certain level (aPTT should be at least doubled versus control). […] The anti-thrombotic effect was quantified by comparing the length of CFRs before and after drug administration. When full inhibition of CFRs was observed, a new injury was applied. Epinephrin was injected and continued till the end of the experiment. […] (1), 3, 10 or 30 μg/kg. […] The specifications of the baboons that were used in this study are represented in table 49.

[3] = test system: cyclic flow reductions (CFRs) in injured, stenosed femoral artery; test: Folts thrombosis model in baboons: length/inhibition of cyclic flow reductions (CFRs); assay type: in vivo, baboon (Papio ursinus); settings: for effective dose: Folts model; for CFRs upon a new injury: new injury applied at full inhibition of CFRs; for Inhibition of CFRs / Inhibition of CFRs after administration of Epinephrin / Inhibition of CFRs after new injury: number of experiments with inhibition / total number of independent repeats
Description: The study protocol that was applied is the original Folts model and some modifications described below (Folts J D, et al, Circulation. 1976; 54:365-370). Healthy male or female baboons (Papio ursinus) were used. The animals were 8-17 kg of weight and were disease-free for at least 2 weeks prior to use. The baboons were fed with dry standard food only. The baboons were used at different time points. […] Animals were anaesthetized and body temperature is maintained at 37° C. with a heating table. A segment of a femoral artery was dissected free from surrounding tissue. A shunt was placed between the femoral vein and femoral artery to obtain high shear rates. The mean and phasic blood flow was recorded continuously throughout the experiment. Baseline flow was recorded for 20 minutes. […] A clamp was placed over the injured site to create an external stenosis. A gradual decline in blood flow due to platelet adhesion and aggregation was observed. When flow was reduced to zero, blood flow was restored by opening the clamp to dislodge the platelet-rich thrombus. This repetitive pattern of decreasing blood flow following mechanical restoration is referred to as cyclic flow reductions (CFRs). Additional endothelial injury was repeated if needed to finally obtain stable CFRs in these baboons. The number of times the thrombus needed to be dislodged determines the number of CFRs. FIG. 24 illustrates blood flow pattern during the Folts model in baboons. […] This procedure was repeated for several times with escalating doses of the test substance. The anti-thrombotic effect was quantified by comparing the length of CFRs before and after drug administration. When full inhibition of CFRs was observed, a new injury was applied in order to confirm that the inhibition was an effect of the treatment but not of a natural healing phenomenon.

[4] = Bleeding analysis in Folts baboons (blood loss in gauzes); settings: for therapeutic window in the Folts model: antithrombotic effect versus blood loss; for Average of total blood loss: sum of blood loss from the first five doses of test compound, relative to the second control gauze
Description: To analyze bleeding, an incision was made with a scalpel in the groin. This was done at 15 minutes after recording baseline flow, when the injury was made in the artery. Gauzes were inserted in the wound and replaced every 30 minutes just before each new dose of test compound. The amount of blood loss after each dose of test compound was determined by weighing the gauzes.

[5] = test system: cyclic flow reductions (CFRs) in injured, stenosed femoral artery; test: Use of vWF as an antidote for ALX-0081 in the baboon Folts model; assay type: in vivo, baboon (Papio ursinus)
Source text: The experimental procedure followed the original Folts model with the modifications as described in the previous example 18.
Healthy male baboons (Papio ursinus) were used in this study. The animals were 9-12 kg of weight and were disease-free for at least 2 weeks prior to use. The baboons were fed with dry standard food only.

[6] = test system: platelet adhesion to collagen type III; test: Inhibition of platelet adhesion by nanobodies in a flow (perfusion) chamber; assay type: cell-based, human
Description: The protein samples were analysed in a perfusion chamber. Thermanox coverslips (Nunc) were soaked overnight in 80% ethanol, rinsed thoroughly with distilled water and air-dried. Human placental collagen type III (Sigma) was solubilized in 0.05 mol/l acetic acid and sprayed on the coverslips at a final density of 30 μg/cm^2 with a retouching airbrush. After spraying the coverslips were blocked with 1% human albumin solution in PBS for at least 1 hour at RT. Perfusions were performed with a single-pass perfusion chamber under non-pulsatile flow conditions using a modified small perfusion chamber with a slit height of 0.1 mm and a slit width of 2 mm. Blood was obtained by venipuncture from healthy volunteers and anti-coagulated with Penta/PPACK. Triplicate coverslips were inserted into the chamber. […] After a perfusion run, the coverslip was taken from the chamber, rinsed in Hepes buffered saline (10 mM Hepes, 150 mM NaCL, ph 7.4), fixed in 0.5% glutaraldehyde in PBS, dehydrated in methanol and stained with May-Grünwald and Giemsa (Riedel de Haën). Platelet deposition was evaluated as platelet surface coverage using light microscopy and computer-assisted analysis.

[7] = Plavix final dose 2.5 mg/kg, individual baboons 9-12, 2.5 mg/kg

Blood loss relative to the second control gauze, Average ([4]; Plavix final dose 1 mg/kg): 1.4
Blood loss relative to the second control gauze ([4]; Plavix final dose 1 mg/kg, individual baboons 9-12, 1 mg/kg): 0.6 and 1.3 and 1.6 and 1.2
Blood loss relative to the second control gauze, Average ([4]; Plavix final dose 2.5 mg/kg): 1.2
Blood loss relative to the second control gauze [4, 7]: 1.5 and 1.4 and 1.1 and 1.0
Blood loss relative to the second control gauze, Average ([4]; Plavix final dose 5 mg/kg): 4.5
Blood loss relative to the second control gauze ([4]; Plavix final dose 5 mg/kg, individual baboons 9-12, 5 mg/kg): 5.1 and 4.7 and 1.4 and 6.6
Blood loss relative to the second control gauze, Average ([4]; Plavix final dose 10 mg/kg): 7.6
Blood loss relative to the second control gauze ([4]; Plavix final dose 10 mg/kg, individual baboons 9-12, 10 mg/kg): 6.5 and 4.5 and 5.8 and 13.6
Blood loss relative to the second control gauze, Average ([4]; Plavix final dose 20 mg/kg): 4.9
Blood loss relative to the second control gauze ([4]; Plavix final dose 20 mg/kg, individual baboons 9-12, 20 mg/kg): 3.7 and 4.1 and 9.1 and 2.6
Blood loss relative to the second control gauze ([4]; at the highest dose): up to 9 fold
Average of total blood loss [4]: 19.4
Molecule: COC(=O)[C@H](c1ccccc1Cl)N1CCc2sccc2C1 [Plavix]
% ristocetin-induced platelet aggregation [1]: 42% and 63% and 66% and 83% and 59% and 76% and 60%
dose of Plavix required for full inhibition, fold lower than Plavix alone [2]: 2.5 fold
time after injection at which the inhibitory effect on CFR length started ([3]; 2.5 mg/kg final dose): 10 min
effective dose [3]: 5 mg/kg
effective dose ([3]; inhibition of CFRs): 5 mg/kg
Length of CFRs ([3]; Plavix final dose 1 mg/kg, individual baboons 9, 11, 12, 1 mg/kg): 189 s and 132 s and 179 s
Length of CFRs [3, 7]: 883 s and 400 s and 258 s and >1800 s
Length of CFRs ([3]; Plavix final dose 5 mg/kg, individual baboons 9-12): >1800 s
Length of CFRs ([3]; Plavix final dose 10 mg/kg, individual baboons 9-12): >1800 s
Length of CFRs ([3]; Plavix final dose 20 mg/kg, individual baboons 9-12): >1800 s
Length of CFRs ([3]; Plavix-treated, after Epinephrin, individual baboons 9-12): 241 s and 91 s and 83 s and 66 s
final dose at which full inhibition of CFRs was obtained ([3]; baboon 12): 2.5 mg/kg
CFRs upon a new injury [3]: CFRs remained inhibited
Inhibition of CFRs [3]: 4/4
Inhibition of CFRs after administration of Epinephrin [3]: 0/4
Inhibition of CFRs after new injury [3]: 4/4
final dose at which full inhibition of CFRs was obtained ([3]; the other three baboons): 5 mg/kg
therapeutic window in the Folts model [4]: much more narrow

Molecule: vWF: vWF evaluated as an antidote for ALX-0081
reversal of the activity of ALX-0081 on CFRs ([5]; CFRs returned after 250 IU plus extra 250 IU of vWF): can be reversed by administration of vWF
Length of CFRs ([5]; second 250 IU vWF after 30 μg/kg + 45 μg/kg/hour ALX-0081, baboons 1-3): 246 s and 256 s and 230 s

Molecule: Reopro: drug currently used in the clinic, comparator in the Folts model
effective dose [3]: 0.25 mg/kg
effective dose ([3]; inhibition of CFRs, final dose, ALX-0081: + […] dose/kg/hour): 0.17 to 0.42 mg/kg
Length of CFRs ([3]; Reopro final dose 20 μg/kg, individual baboons 13, 14, 15): 98 s and 82 s and 254 s
Length of CFRs ([3]; Reopro final dose 70 μg/kg, individual baboons 13, 14, 15): 90 s (2×) and 248 s
Length of CFRs ([3]; Reopro final dose 170 μg/kg, individual baboons 13, 14, 15): 90 s and >1800 s (2×)
Length of CFRs ([3]; Reopro final dose 420 μg/kg, individual baboons 13, 14, 15): >1800 s
Length of CFRs ([3]; Reopro final dose 920 μg/kg, individual baboons 13, 14, 15): >1800 s
Length of CFRs ([3]; Reopro-treated, after Epinephrin, individual baboons 13, 14, 15): >1200 s
final dose needed for full inhibition of the CFRs ([3]; baboons 13, 14 and 15, bolus injection only): 0.17 to 0.42 mg/kg
CFRs upon a new injury [3]: complete inhibition of the CFRs was retained
Inhibition of CFRs [3]: 3/3
Inhibition of CFRs after administration of Epinephrin [3]: 3/3
Inhibition of CFRs after new injury [3]: 3/3
therapeutic window in the Folts model [4]: much more narrow
Average of total blood loss [4]: 44

B1: 12A2H4: humanised 12A2 nanobody, SEQ ID NO: 92 (protein)
VHH: EVQLVESGGGLVQPGGSLRLSCAASGRTFSYNPMGWFRQAPGKGRELVAAISRTGGSTYYPDSVEGRFTISRDNAKRSVYLQMNSLRAEDTAVYYCAAAGVRAEDGRVRTLPSEYTFWGQGTQVTVSS
% Platelet adhesion ([6]; 0.5 μg/ml nanobody, Table 32): 61 ± 1%
% Platelet adhesion ([6]; 0.7 μg/ml nanobody, Table 31): 55 ± 1%
% Platelet adhesion ([6]; 1 μg/ml nanobody, Table 32): 57 ± 1%
% Platelet adhesion ([6]; 2 μg/ml nanobody, Table 32): 46 ± 5%

B2: 12A2H1: humanised 12A2 nanobody, SEQ ID NO: 90 (protein)
VHH: EVQLVESGGGLVQPGGSLRLSCAASGRTFSYNPMGWFRQAPGKGRELVAAISRTGGSTYYPDSVEGRFTISRDNAKRMVYLQMNSLRAEDTAVYYCAAAGVRAEDGRVRTLPSEYTFWGQGTQVTVSS
% Platelet adhesion ([6]; 0.5 μg/ml nanobody, Table 32): 40 ± 9%
% Platelet adhesion ([6]; 0.7 μg/ml nanobody, Table 31): 49 ± 1%
% Platelet adhesion ([6]; 1 μg/ml nanobody, Table 32): 43 ± 3%
% Platelet adhesion ([6]; 2 μg/ml nanobody, Table 32): 38 ± 5%

B3: 12A2-GS9-12A2 (protein)
VHH: QVKLEESGGGLVQAGGALRLSCAASGRTFSYNPMGWFRQAPGKERDLVAAISRTGGSTYYPDSVEGRFTISRDNAKRMVYLQMNNLKPEDTAVYYCAAAGVRAEDGRVRTLPSEYTFWGQGTQVTVSSGGGGSGGGSEVQLVESGGGLVQAGGALRLSCAASGRTFSYNPMGWFRQAPGKERDLVAAISRTGGSTYYPDSVEGRFTISRDNAKRMVYLQMNNLKPEDTAVYYCAAAGVRAEDGRVRTLPSEYTFWGQGTQVTVSS
% Platelet adhesion ([6]; 0.1 μg/ml nanobody, Table 23): 81 ± 1%
% Platelet adhesion ([6]; 0.2 μg/ml nanobody, Table 23): 73 ± 1%
% Platelet adhesion ([6]; 0.4 μg/ml nanobody, Table 23): 40 ± 2%

B4: 12B6-3a-12B6 (protein)
VHH: QVQLVESGGGLVQAGGALRLSCAASGRTFSYNPMGWFRQAPGKERDVVAAISRTGGSTYYARSVEGRFTISRDNAKRMVYLQMNALKPEDTAVYYCAAAGVRAEDGRVRTLPSEYNFWGQGTQVTVSSAAAEVQLVESGGGLVQAGGALRLSCAASGRTFSYNPMGWFRQAPGKERDVVAAISRTGGSTYYARSVEGRFTISRDNAKRMVYLQMNALKPEDTAVYYCAAAGVRAEDGRVRTLPSEYNFWGQGTQVTVSS
% Platelet adhesion ([6]; 0.3 μg/ml nanobody, Table 41): 15 ± 6%
% Platelet adhesion ([6]; 0.6 μg/ml nanobody, Table 41): 8 ± 6%

B5: 12A2H4-3a-12A2H4 (protein)
chain: EVQLVESGGGLVQPGGSLRLSCAASGRTFSYNPMGWFRQAPGKGRELVAAISRTGGSTYYPDSVEGRFTISRDNAKRSVYLQMNSLRAEDTAVYYCAAAGVRAEDGRVRTLPSEYTFWGQGTQVTVSSAAAEVQLVESGGGLVQPGGSLRLSCAASGRTFSYNPMGWFRQAPGKGRELVAAISRTGGSTYYPDSVEGRFTISRDNAKRSVYLQMNSLRAEDTAVYYCAAAGVRAEDGRVRTLPSEYTFWGQGTQVTVSS
% Platelet adhesion ([6]; 0.3 μg/ml nanobody, Table 41): 10 ± 6%
% Platelet adhesion ([6]; 0.6 μg/ml nanobody, Table 41): 8 ± 4%

B6: 12B6H2-3a-12B6H2 (protein)
VHH: EVQLVESGGGLVQPGGSLRLSCAASGRTFSYNPMGWFRQAPGKGREVVAAISRTGGSTYYARSVEGRFTISRDNAKRMVYLQMNSLRAEDTAVYYCAAAGVRAEDGRVRTLPSEYNFWGQGTQVTVSSAAAEVQLVESGGGLVQPGGSLRLSCAASGRTFSYNPMGWFRQAPGKGREVVAAISRTGGSTYYARSVEGRFTISRDNAKRMVYLQMNSLRAEDTAVYYCAAAGVRAEDGRVRTLPSEYNFWGQGTQVTVSS
% Platelet adhesion ([6]; 0.3 μg/ml nanobody, Table 41): 30 ± 16%
% Platelet adhesion ([6]; 0.6 μg/ml nanobody, Table 41): 17 ± 6%

Source: US7807162B2, “Single domain VHH antibodies against von Willebrand factor” (Ablynx N.V., priority 2005, dated 2010)
